Test results published in US10543159B2, “Hair papilla cell activator” (Ezaki Glico Co., Ltd., priority 2014, dated 2020).
Where a name gives a salt, the structure may show the parent alone.

Tests used:
[1] = test system: FGF7 and VEGF; assay: Gene expression with POs-Ca (R) combined with general hair-restoration components (Example 8); format: cell-based, human; conditions: 0.25% POs-Ca (R) with 0.25% glycyrrhizinate dipotassium, 1% tocopherol acetate, 0.125% pantothenyl ethyl ether or 1% Swertia japonica; two wells
Method: (1) Glycyrrhizinate dipotassium (for biochemical use) from Wako Pure Chemical Industries, Ltd. was diluted to 20% (w/v) with water, and sterilized by being passed through a 0.20-μm filter (Minisart, surfactant-free cellulose acetate, Sartorius Stedim Biotech, US) with a 10-ml syringe (Terumo Corporation), and the resulting product was diluted with sterilized water, as required, and used.
(2) (±)-α-Tocopherol acetate (first grade) from Wako Pure Chemical Industries, Ltd., as tocopherol acetate, and DL-pantothenyl ethyl ether from Santa Cruz Biotechnology, as pantothenyl ethyl ether, were each diluted 5-fold to 20% (v/v) with ethanol, and diluted with sterilized water, as required, and used.
(3) A water-ethanol solution of Swertia japonica extract from Senken Co., Ltd., as a 100% (v/v) extract, was diluted with sterilized water, as required, and used.
(1) 500 μl of a special medium in which 2×10^4 cells/ml of follicle dermal papilla cells were suspended was dispensed into a type I collagen-coated 24-well cell culture plate (Corning), and cultured at a cell density of 5×10^3 cells/cm^2 at 37° C. for 96 hours, until the cells reached subconfluent. […]
(3) Two wells were used for culturing each of the DMEM solutions containing (a) to (i). The expression levels of FGF7 and VEGF were analyzed as in (3) to (8) of Example 3, and the average values of the two wells were compared.

[2] = test system: VEGF; assay: Expression rate of VEGF among acidic saccharide salts, quantitative PCR (Example 6); format: cell-based, human; conditions: Example 6: solutions (b)-(h) of b288 mixed 1:9 with DMEM, GAPDH reference, mean of 4 PCR assays
Method: (§1) (1) 500 μl of a special medium in which 2×10^4 cells/ml of follicle dermal papilla cells were suspended was dispensed into a type I collagen-coated 24-well cell culture plate (Corning), and cultured at a cell density of 5×10^3 cells/cm^2 at 37° C. for 72 hours. […] Oji Cornstarch Co., Ltd.), (f) a 2.5% (w/v) aqueous solution of a phosphorylated oligosaccharide magnesium salt (POs-Mg; […] (3) Each of the solutions (a) to (c) was mixed with DMEM high glucose (Sigma, USA) at a ratio of 1:9. (4) Following the procedures (4) to (6) in Example 2, mRNA was extracted from the cells, cDNA was prepared, and then the expression levels of the VEGF, FGF-7, and GAPDH genes were quantified by quantitative PCR. (7) Using GAPDH as a reference gene, a comparative analysis of expression levels was performed with the analysis software (Bio-Rad CFX Manager 3.0) included in CFX96Touch. The expression levels were calculated under the default conditions of the software.

[3] = test system: FGF-7; assay: Expression rate of FGF-7 among acidic saccharide salts, quantitative PCR (Example 6); format: cell-based, human; conditions: Example 6: solutions (b)-(h) of b288 mixed 1:9 with DMEM, GAPDH reference, mean of 4 PCR assays
Method: as §1

[4] = test system: human follicle dermal papilla cells; assay: Follicle dermal papilla cell proliferation, Cell Counting Kit-F cell count (Example 2); format: cell-based
Method: A strain (Lot. 3092504.12) sold by PromoCell (Germany) was used as human follicle dermal papilla cells. The cells were cultured in a CO2 incubator at 37° C., using a special medium for follicle dermal papilla cells (PromoCell), unless otherwise indicated. Cell subculturing was performed as follows: cells were seeded at 5000 to 10000 cells/cm^2 in an uncoated dish, and when the cells reached subconfluent, they were treated with trypsin-EDTA (0.03%) and detached, and then re-seeded. […] The medium was replaced about once every 3 days.
1. The procedures (1) and (3) to (5) in Example 1 were performed in the same manner as described above. Solutions of the compositions shown in the following table were prepared in a concentration series starting from a 10% (w/v) aqueous solution of POs-Ca (R), a 12.9% (w/v) aqueous solution of G1P-Ca, a 1.84% (w/v) aqueous solution of CaCl2.2H2O, or a 10% (w/v) aqueous solution of POs-Na.
2. In place of the conditions ((6), (7) and (8)) in Example 1, Cell Counting Kit-F (Dojindo Molecular Technologies, Inc.) was added to each well in accordance with the manual, and the number of cells was counted.

[5] = test system: VEGF; assay: Quantitative PCR gene expression in follicle dermal papilla cells: VEGF; format: cell-based, human; conditions: Example 5: 0.25% POs-Ca (R), 50 μM adenosine or both; DMEM serum-free, 37° C., 5 hours; Dunnett p<0.05, n=8
[6] = test system: FGF-7; assay: Quantitative PCR gene expression in follicle dermal papilla cells: FGF-7; format: cell-based, human; conditions: 37° C., 5 hours
Method: (§2) (1) 500 μl of a special medium in which 4×10^4 cells/ml of follicle dermal papilla cells were suspended was dispensed into a type I collagen-coated 24-well cell culture plate (Corning), and cultured at a cell density of 1.0×10^4 cells/cm^2 at 37° C. for 42 hours. […] Each of the solutions (a) to (c) was mixed with DMEM high glucose (Sigma, USA) at a ratio of 1:9.
(§3) (3) The medium was aspirated from each well obtained in (1), the well was washed by adding 1 ml of 1×PBS (137 mM NaCl, 8.1 mM Na2HPO4, 2.68 mM KCl, 1.47 mM KH2PO4 (pH 7.4); Wako Pure Chemical Industries, Ltd.), and aspirating the PBS, 500 μl of DMEM high glucose was added, and the cells were incubated in a CO2 incubator at 37° C. for 5 hours. […]
(6) 0.5 μl of each of cDNA solutions diluted 2-fold with water, 1 μl of a solution containing 4 μM of each of primers 1 and 2 for each of the genes shown in Table 2, 5 μl of SYBR Premix Ex Taq II (Takara), and 3.5 μl of water were added, and quantitative PCR was performed on each of the genes. […] Fluorescence intensity after each cycle was measured.
(§4) (7) Using PGK1 and GAPDH as reference genes, a comparative analysis of expression levels was performed with the analysis software (Bio-Rad CFX Manager 3.0) included in CFX96Touch. Relative expression levels were calculated under the default conditions of the software. […]

[7] = test system: Wnt5a; assay: Quantitative PCR gene expression in follicle dermal papilla cells: Wnt5a; format: cell-based, human; conditions: 37° C., 5 hours
Method: as §2, §3
(4) The medium was removed from each well, and then mRNA was extracted using CellAmp Direct RNA Prep Kit for RT-PCR (Takara). The method was performed in accordance with the manual for the kit.
(5) 8 μl of the extracted mRNA solution (200 μl for each well) was used, and cDNA was obtained by the reverse transcription reaction at a scale of 40 μl, using PrimeScript RT Master Mix (Takara). The reaction conditions were as set forth in the manual for the kit.
(6) 0.5 μl of each of cDNA solutions diluted 2-fold with water, 1 μl of a solution containing 4 μM of each of primers 1 and 2 for each of the genes shown in Table 2, 5 μl of SYBR Premix Ex Taq II (Takara), and 3.5 μl of water were added, and quantitative PCR was performed on each of the genes. Using CFX96 Touch (BIO-RAD, USA), denaturation treatment at 95° C. for 30 seconds was performed, and then a two-step cycle at 95° C. for 5 seconds and at 62° C. for 20 seconds was performed for 65 cycles. Fluorescence intensity after each cycle was measured.
as §4

[8] = Example 5: 0.25% POs-Ca (R), 50 μM adenosine or both, DMEM serum-free, Dunnett p<0.05, n=8
[9] = Example 7: 0.25% POs-Mg or MgCl2.6H2O with equivalent magnesium, DMEM, Dunnett p<0.05

Compound: CC(=O)Oc1c(C)c(C)c2c(c1C)CCC(C)(CCC[C@H](C)CCC[C@H](C)CCCC(C)C)O2 (mixture of isomers) [tocopherol acetate, (±)-α-Tocopherol acetate]
- synergistic effect with POs-Ca (R) on expression of FGF7 and VEGF [1]: None

Compound: O=P(O)(O)OC1O[C@H](CO)[C@@H](O)[C@H](O)[C@H]1O (some centres unmarked) [G1P-Ca, glucose-1-phosphate calcium salt]
- VEGF, relative values of the expression levels based on the control as 1 ([2]; calcium salt): induced an increase
- VEGF, relative values of the expression levels based on the control as 1 ([2]; listed as G1P—Ca, calcium salt): 1.46
- FGF7, relative values of the expression levels based on the control as 1 ([3]; calcium salt): induced an increase
- FGF7, relative values of the expression levels based on the control as 1 ([3]; listed as G1P—Ca, calcium salt): 1.10
- working concentrations having the effect of proliferating follicle dermal papilla cells ([4]; FIG. 1B-1D legends, Dunnett p<0.05): over 0.3%
- number of cells compared to that without addition ([4]; concentration series of Table 1A, 3 days): increased at all concentrations

Compound: O=C([O-])[C@H](O)[C@@H](O)[C@H](O[C@@H]1O[C@H](CO)[C@H](O)[C@H](O)[C@H]1O)[C@H](O)CO.O=C([O-])[C@H](O)[C@@H](O)[C@H](O[C@@H]1O[C@H](CO)[C@H](O)[C@H](O)[C@H]1O)[C@H](O)CO.[Ca+2] [Lactobio-Ca, calcium lactobionate]
- VEGF, relative values of the expression levels based on the control as 1 [2]: 1.48
- VEGF, relative values of the expression levels based on the control as 1 ([2]; listed as calcium lactobionate): induced an increase
- FGF7, relative values of the expression levels based on the control as 1 [3]: 1.35
- FGF7, relative values of the expression levels based on the control as 1 ([3]; listed as calcium lactobionate): induced an increase

Compound: Nc1ncnc2c1ncn2[C@@H]1O[C@H](CO)[C@@H](O)[C@H]1O [adenosine]
- expression of VEGF compared to without treatment [5]: significant difference
- expression of FGF7 compared to without treatment [6, 8]: significant difference
- expression of WNTSA (Wnt5a) compared to without treatment [7, 8]: significant difference

Compound: CC1(C)[C@@H](O[C@H]2O[C@H](C(=O)O)[C@@H](O)[C@H](O)[C@H]2O[C@@H]2O[C@H](C(=O)O)[C@@H](O)[C@H](O)[C@H]2O)CC[C@]2(C)[C@H]3C(=O)C=C4[C@@H]5C[C@@](C)(C(=O)O)CC[C@]5(C)CC[C@@]4(C)[C@]3(C)CC[C@@H]12 [glycyrrhizinate dipotassium, Glycyrrhizinate dipotassium]
- synergistic effect with POs-Ca (R) on expression of FGF7 and VEGF [1]: None

Compound: magnesium chloride hexahydrate [general magnesium]
- expression of FGF7 [6, 9]: not observed
- expression of WNTSA [7, 9]: not observed
